Experiments:
[1] = molecular target: Tyrosine-protein kinase receptor UFO (Homo sapiens) (UniProt P30530); assay: Selectivity interaction (KinomeScan (DiscoverX)) EUB0001049a AXL; conditions: at 1 µM
[2] = molecular target: T1, Protein kinase C iota type (Homo sapiens) (UniProt P41743); assay: Selectivity interaction (KinomeScan (DiscoverX)) EUB0000666a PRKCI; conditions: at 10 µM
T1 sequence (whole entry): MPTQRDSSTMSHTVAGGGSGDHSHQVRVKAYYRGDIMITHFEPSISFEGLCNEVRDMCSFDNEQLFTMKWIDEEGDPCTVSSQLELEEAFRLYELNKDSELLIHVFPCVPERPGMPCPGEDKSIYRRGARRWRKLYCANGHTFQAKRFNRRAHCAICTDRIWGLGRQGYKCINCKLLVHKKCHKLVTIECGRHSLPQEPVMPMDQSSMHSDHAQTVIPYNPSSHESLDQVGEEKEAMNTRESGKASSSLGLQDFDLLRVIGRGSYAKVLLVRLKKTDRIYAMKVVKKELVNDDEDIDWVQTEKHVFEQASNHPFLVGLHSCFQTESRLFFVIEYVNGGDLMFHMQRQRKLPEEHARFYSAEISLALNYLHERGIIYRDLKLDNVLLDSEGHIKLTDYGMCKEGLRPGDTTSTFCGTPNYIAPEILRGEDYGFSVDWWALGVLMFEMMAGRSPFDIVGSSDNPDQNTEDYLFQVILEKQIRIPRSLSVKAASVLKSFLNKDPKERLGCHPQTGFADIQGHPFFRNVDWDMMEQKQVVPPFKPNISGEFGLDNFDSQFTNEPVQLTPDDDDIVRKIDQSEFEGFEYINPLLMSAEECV

[3] = molecular target: Ribosomal protein S6 kinase alpha-4 (Homo sapiens) (UniProt O75676); assay: Selectivity interaction (KinomeScan (DiscoverX)) EUB0001079a RPS6KA4; conditions: at 1 µM
[4] = molecular target: Amine oxidase [flavin-containing] B (Homo sapiens, UniProt P27338); assay: Selectivity interaction (Eurofins safety panel) EUB0001564a MAOB; conditions: at 10 µM
Sequence of Amine oxidase [flavin-containing] B (P27338 whole entry): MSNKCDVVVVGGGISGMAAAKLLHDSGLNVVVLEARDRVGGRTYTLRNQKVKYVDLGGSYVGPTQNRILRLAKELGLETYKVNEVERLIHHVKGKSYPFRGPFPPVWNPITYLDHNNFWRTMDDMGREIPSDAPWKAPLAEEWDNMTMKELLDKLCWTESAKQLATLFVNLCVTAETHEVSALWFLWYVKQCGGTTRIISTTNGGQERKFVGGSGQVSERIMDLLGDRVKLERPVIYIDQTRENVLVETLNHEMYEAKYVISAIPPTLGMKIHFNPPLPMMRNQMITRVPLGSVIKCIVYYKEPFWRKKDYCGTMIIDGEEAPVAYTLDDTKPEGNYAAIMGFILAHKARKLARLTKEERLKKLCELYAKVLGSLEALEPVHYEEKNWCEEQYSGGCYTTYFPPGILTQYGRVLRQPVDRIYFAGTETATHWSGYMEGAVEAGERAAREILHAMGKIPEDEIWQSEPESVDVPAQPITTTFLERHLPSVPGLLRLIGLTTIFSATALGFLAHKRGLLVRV

[5] = molecular target: Ribosomal protein S6 kinase alpha-3 (Homo sapiens, UniProt P51812); assay: Selectivity interaction (Kinase screening (Nanosyn)) EUB0000604a RPS6KA3
[6] = molecular target: STE20/SPS1-related proline-alanine-rich protein kinase (Homo sapiens) (UniProt Q9UEW8); assay: Selectivity interaction (Ambit KINOMEscan and KiNATiv profiling in Jurkat cells) EUB0000090b STK39; format: cell-based; conditions: at 1 µM
[7] = molecular target: Citron Rho-interacting kinase (Homo sapiens) (UniProt O14578); assay: Selectivity interaction (Ambit KINOMEscan and KiNATiv profiling in Jurkat cells) EUB0000090b CIT; format: cell-based; conditions: at 1 µM
Sequence of Citron Rho-interacting kinase (Homo sapiens) (O14578 whole entry): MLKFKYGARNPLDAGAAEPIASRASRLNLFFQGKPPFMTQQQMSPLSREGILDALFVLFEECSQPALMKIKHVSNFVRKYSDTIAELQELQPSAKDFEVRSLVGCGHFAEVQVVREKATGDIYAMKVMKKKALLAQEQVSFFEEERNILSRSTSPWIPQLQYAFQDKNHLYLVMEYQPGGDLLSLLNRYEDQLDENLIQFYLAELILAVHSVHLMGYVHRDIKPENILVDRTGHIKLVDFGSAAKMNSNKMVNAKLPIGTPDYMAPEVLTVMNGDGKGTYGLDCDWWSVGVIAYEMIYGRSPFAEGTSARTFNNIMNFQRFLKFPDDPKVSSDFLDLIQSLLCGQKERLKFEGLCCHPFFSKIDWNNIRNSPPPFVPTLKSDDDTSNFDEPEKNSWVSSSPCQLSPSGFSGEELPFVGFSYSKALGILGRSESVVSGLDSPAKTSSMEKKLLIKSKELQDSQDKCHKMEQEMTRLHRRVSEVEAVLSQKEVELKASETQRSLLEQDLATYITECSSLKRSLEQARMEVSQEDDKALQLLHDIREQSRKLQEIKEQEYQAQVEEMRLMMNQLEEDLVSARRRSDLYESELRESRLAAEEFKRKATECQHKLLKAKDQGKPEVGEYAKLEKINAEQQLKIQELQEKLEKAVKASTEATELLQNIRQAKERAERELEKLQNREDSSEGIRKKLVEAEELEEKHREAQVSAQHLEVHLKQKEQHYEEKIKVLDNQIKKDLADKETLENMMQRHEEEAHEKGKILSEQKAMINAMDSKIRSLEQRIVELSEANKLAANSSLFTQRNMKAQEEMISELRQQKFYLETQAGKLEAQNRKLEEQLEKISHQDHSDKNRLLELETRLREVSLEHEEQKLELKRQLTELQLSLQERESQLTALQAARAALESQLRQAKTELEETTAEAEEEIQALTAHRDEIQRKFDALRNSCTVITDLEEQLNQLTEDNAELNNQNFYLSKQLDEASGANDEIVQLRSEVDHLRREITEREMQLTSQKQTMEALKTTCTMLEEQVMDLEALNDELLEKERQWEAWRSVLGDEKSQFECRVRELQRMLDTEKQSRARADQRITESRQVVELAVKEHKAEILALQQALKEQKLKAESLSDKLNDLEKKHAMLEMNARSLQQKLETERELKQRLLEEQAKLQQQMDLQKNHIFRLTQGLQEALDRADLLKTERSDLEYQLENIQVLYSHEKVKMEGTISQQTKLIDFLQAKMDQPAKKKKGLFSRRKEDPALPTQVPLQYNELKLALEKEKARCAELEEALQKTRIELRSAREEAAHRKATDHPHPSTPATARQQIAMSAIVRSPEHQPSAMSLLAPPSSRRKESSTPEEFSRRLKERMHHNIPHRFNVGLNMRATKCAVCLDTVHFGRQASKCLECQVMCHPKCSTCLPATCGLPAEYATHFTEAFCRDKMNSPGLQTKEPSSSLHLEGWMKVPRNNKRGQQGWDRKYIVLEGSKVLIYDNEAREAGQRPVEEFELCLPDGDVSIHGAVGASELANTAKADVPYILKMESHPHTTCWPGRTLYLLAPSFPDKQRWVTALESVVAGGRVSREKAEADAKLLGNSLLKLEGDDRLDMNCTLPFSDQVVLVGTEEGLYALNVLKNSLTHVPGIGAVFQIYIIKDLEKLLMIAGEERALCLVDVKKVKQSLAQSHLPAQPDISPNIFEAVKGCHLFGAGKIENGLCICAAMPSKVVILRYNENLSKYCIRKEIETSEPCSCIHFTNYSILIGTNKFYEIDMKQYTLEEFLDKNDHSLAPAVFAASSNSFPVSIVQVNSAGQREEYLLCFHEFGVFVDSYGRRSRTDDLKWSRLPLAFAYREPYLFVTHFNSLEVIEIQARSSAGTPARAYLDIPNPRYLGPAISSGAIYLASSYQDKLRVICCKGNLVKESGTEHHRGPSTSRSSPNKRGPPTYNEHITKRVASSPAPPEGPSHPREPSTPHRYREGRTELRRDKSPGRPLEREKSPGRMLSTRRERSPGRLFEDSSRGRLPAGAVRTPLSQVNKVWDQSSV

[8] = molecular target: Tyrosine-protein kinase receptor UFO (Homo sapiens) (UniProt P30530); conditions: at 10 µM
[9] = molecular target: T2, Inhibitor of nuclear factor kappa-B kinase subunit epsilon (Homo sapiens) (UniProt Q14164); assay: Selectivity interaction (ActivX KiNativ screen (ex vivo kinase selectivity in human PBMCs)) EUB0001619a IKBKE; format: cell-based; conditions: PBMC, at 1 µM
T2 sequence (whole entry): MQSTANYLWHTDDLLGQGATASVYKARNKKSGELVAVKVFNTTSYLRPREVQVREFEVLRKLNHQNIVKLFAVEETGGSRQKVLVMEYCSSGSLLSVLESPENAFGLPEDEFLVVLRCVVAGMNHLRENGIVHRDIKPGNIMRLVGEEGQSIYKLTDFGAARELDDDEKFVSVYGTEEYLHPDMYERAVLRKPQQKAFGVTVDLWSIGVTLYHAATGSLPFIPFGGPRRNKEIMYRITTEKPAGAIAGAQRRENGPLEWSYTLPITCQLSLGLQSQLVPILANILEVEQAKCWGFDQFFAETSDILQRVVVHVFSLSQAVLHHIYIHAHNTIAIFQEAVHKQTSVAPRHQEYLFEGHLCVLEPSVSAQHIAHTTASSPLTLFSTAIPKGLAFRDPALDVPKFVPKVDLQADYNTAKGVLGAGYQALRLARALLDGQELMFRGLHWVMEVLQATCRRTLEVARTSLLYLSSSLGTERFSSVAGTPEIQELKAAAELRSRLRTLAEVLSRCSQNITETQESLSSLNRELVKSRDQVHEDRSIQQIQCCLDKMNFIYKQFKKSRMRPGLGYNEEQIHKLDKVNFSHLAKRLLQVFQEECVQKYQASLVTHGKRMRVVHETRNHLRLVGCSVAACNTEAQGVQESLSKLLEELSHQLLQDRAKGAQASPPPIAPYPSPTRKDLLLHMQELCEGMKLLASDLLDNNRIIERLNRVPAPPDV

[10] = molecular target: T3, Phosphatidylinositol 5-phosphate 4-kinase type-2 beta (Homo sapiens) (UniProt P78356); assay: Selectivity interaction (KinomeScan (DiscoverX)) EUB0000695a PIP4K2B; conditions: at 100 nM
T3 sequence (whole entry): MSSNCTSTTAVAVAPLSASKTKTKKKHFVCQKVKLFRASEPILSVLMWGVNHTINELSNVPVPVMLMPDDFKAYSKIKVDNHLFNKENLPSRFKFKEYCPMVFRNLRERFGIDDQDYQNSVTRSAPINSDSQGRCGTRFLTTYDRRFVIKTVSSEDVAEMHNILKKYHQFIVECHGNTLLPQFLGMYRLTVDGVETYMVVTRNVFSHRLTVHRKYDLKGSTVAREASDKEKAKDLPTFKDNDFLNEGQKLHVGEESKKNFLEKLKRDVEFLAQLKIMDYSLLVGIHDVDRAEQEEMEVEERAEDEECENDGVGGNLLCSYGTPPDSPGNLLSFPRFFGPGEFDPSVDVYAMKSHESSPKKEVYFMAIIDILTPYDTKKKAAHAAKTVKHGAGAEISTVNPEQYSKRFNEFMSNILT

[11] = molecular target: Proto-oncogene tyrosine-protein kinase ROS (Homo sapiens) (UniProt P08922); assay: Selectivity interaction (KinomeScan (DiscoverX)) EUB0000695a ROS1; conditions: at 100 nM
[12] = molecular target: CDK2/Cyclin A2 (Homo sapiens, UniProt P24941); assay: (§1) Selectivity interaction (Enzymatic assay (Reaction Biology)) EUB0001632a CDK2; format: protein-complex assay
[13] = molecular target: Cyclin-dependent kinase 2/cyclin E (Homo sapiens, UniProt P24941); assay: as §1; format: protein-complex assay
[14] = molecular target: Serine/threonine-protein kinase 26 (Homo sapiens, UniProt Q9P289); assay: Selectivity interaction (Kinase panel (Z-LYTE Assay)) EUB0001632a STK26; conditions: at 10 µM
Sequence of Serine/threonine-protein kinase 26 (Q9P289 2-416 limits assumed): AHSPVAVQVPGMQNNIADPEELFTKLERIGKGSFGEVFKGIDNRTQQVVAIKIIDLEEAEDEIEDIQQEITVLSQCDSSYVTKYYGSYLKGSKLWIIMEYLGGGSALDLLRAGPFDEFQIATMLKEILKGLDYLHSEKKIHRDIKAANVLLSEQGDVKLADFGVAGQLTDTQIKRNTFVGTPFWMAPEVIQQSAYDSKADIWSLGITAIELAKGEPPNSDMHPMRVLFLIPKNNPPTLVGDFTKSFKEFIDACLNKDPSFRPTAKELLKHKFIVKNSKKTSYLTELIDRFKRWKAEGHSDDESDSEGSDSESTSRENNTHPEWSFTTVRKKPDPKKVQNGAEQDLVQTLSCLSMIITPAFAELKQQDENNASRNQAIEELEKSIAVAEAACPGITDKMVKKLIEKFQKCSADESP

[15] = molecular target: Receptor-interacting serine/threonine-protein kinase 2 (Homo sapiens, UniProt O43353); assay: Selectivity interaction (ProQinase) EUB0000171b RIPK2
Sequence of Receptor-interacting serine/threonine-protein kinase 2 (O43353 whole entry): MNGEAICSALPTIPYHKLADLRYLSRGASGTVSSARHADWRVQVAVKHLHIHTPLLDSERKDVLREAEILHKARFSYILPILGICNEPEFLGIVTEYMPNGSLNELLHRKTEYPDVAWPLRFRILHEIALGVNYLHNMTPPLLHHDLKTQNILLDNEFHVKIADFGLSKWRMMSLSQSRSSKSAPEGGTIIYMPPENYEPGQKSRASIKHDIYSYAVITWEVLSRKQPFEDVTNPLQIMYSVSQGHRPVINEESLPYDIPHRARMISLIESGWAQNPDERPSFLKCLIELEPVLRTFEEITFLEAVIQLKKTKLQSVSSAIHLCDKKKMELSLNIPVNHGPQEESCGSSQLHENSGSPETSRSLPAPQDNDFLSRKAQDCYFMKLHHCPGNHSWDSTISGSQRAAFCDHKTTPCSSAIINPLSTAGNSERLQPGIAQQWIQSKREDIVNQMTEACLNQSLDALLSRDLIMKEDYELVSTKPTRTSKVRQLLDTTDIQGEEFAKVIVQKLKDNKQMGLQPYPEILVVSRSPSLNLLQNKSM

[16] = molecular target: Serine/threonine-protein kinase PAK 2 (Homo sapiens) (UniProt Q13177); assay: Selectivity interaction (ProQinase) EUB0000171b PAK2
Sequence of Serine/threonine-protein kinase PAK 2 (Homo sapiens) (Q13177 whole entry): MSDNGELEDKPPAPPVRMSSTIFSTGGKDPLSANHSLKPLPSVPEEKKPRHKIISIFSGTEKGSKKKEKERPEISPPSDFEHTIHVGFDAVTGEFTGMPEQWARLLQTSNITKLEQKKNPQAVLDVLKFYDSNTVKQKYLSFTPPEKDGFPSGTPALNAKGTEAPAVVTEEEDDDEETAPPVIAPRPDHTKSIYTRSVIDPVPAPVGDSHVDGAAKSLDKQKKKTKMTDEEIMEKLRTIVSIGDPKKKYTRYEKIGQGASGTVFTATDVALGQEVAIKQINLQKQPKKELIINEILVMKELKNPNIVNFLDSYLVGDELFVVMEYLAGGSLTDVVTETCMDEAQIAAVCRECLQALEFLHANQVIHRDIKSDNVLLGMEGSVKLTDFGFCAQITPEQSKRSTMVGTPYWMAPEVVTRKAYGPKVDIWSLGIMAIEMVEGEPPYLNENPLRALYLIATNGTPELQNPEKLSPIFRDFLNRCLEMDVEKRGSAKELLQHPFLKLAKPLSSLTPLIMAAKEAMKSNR

Sequence of Tyrosine-protein kinase receptor UFO (Homo sapiens) (P30530 whole entry): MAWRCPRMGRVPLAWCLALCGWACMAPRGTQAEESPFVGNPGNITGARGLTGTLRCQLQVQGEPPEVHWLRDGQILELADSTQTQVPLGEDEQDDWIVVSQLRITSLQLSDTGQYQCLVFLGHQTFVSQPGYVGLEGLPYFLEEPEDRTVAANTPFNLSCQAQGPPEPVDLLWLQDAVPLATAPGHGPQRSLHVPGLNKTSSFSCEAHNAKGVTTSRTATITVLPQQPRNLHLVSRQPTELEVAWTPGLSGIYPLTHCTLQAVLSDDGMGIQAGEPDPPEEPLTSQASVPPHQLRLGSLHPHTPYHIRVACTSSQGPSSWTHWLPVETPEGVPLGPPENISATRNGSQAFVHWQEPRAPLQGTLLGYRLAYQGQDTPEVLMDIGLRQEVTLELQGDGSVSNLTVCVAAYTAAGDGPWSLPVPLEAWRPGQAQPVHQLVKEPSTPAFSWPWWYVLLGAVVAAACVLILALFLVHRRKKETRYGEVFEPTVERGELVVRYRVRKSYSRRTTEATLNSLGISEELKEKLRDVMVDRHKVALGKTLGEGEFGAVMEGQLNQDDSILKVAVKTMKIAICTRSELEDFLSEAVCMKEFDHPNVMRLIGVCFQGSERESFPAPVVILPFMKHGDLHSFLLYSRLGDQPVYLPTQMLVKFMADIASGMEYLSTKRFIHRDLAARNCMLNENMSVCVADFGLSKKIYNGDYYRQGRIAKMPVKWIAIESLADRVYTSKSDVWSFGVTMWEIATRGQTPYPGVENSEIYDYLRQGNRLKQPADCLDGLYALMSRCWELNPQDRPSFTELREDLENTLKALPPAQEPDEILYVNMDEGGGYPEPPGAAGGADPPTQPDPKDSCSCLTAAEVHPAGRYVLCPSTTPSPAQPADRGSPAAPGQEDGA

SMILES: COc1cc(Nc2nc(C)cc(-c3cnn4nc(OC)ccc34)n2)cc(C(F)(F)F)c1
- % of control [1]: 100%

SMILES: O=C(NOC[C@H](O)CO)c1ccc(F)c(F)c1Nc1ccc(I)cc1F
- % of control [2]: 70%

SMILES: Nc1cnc(N2CCc3cc(S(=O)(=O)Nc4c(F)cc(Cl)cc4F)cc(N4CCCC4=O)c32)nc1 [TP-020n]
- % of control [3]: 96%

SMILES: CC[C@@H](Nc1c(C#N)c(-c2ccc(-c3cccc(C)c3F)cc2)nc2cnccc12)C(=O)O [BAY-091]
- % of inhibition [4]: 81%

SMILES: Cc1cnc(Nc2ccc(F)cc2Cl)nc1-c1c[nH]c(C(=O)N[C@H](CO)c2cccc(Cl)c2)c1
- % of inhibition [5]: 6%

SMILES: CN(C)C/C=C/C(=O)Nc1ccc(C(=O)N2CCCC(Nc3ncc(Cl)c(-c4c[nH]c5ccccc45)n3)C2)cc1 (stereo not drawn)
- % of control [6]: 95%
- % of control [7]: 83%

SMILES: Cc1cc([C@@H](C)Nc2ccccc2C(=O)O)c2nc(N3CCOCC3)cc(=O)n2c1 [AZD-6482]
- % of control [8]: 86%

SMILES: N#Cc1cccc(-c2c[nH]c3ncnc(N4CCOCC4)c23)c1
- % of inhibition [9]: 19%

SMILES: Cc1cc(F)c(C(=O)Nc2cccc(-c3nncn3C(C)C)n2)cc1-n1cnc(C2CC2)c1
- % of control [10]: 92%
- % of control [11]: 79%

SMILES: Cn1cc(-n2cnc3c(NCc4nc5cc(Cl)c(Cl)cc5[nH]4)nc(N4CCOCC4)nc32)cn1
- IC50 [12]: > 10 µM
- IC50 [13]: > 10 µM
- % of control [14]: 2.09%

SMILES: C=CC(=O)Nc1cccc(C(=O)Nc2ccc(Nc3cc(-c4[nH]c(SC)nc4C)ccn3)cc2)c1
- % of control ([15]; at 1 µM): 77%
- % of control ([15]; at 5 µM): 43%
- % of control ([16]; at 1 µM): 99%
- % of control ([16]; at 5 µM): 86%
